Data: PMC11932959, “Sulfonamide‐Bearing Pyrazolone Derivatives as Multitarget Therapeutic Agents: Design, Synthesis, Characterization, Biological Evaluation, In Silico ADME/T Profiling and Molecular Docking Study” (Pharmacology Research & Perspectives, 2025)

Tests used:
Test in all cases: biochemical
AChE = AChE (Homo sapiens, UniProt P22303); type: biochemical; conditions: Lineweaver-Burk; for Ki: mean ± standard error, read-out: K I AChE
Description: (§1) First, purification of hCA I and hCA II enzymes for this study followed a modified procedure derived from prior literature sources. To evaluate the inhibitory effects, the esterase activities of hCA isoforms were assessed using the p‐nitrophenylacetate substrate, which is converted by both isoforms to the p‐nitrophenolate ion, as described in our prior studies. The assessment of ChE activities involved a modified adaptation of the Ellman's method, incorporating acetylthiocholine iodide for AChE and […] for BChE as the respective substrates.
(§2) The inhibition effects of the novel sulfonamide‐bearing pyrazolone derivatives were determined with different inhibitor concentrations (at least five) against hCA isoenzymes and ChEs. The IC 50 of the derivatives was calculated from Activity (%)–[inhibitor] graphs for derivatives. The inhibition types and K I values were found by Lineweaver and Burk's curves. The data analysis and graph generation were performed using GraphPad Prism version 8 for Mac (GraphPad Software, La Jolla, California, USA). The goodness of fit for enzyme inhibition models was compared using the extra sum‐of‐squares F test and the AICc approach.

hCA I = hCA I (Homo sapiens, UniProt P00915); type: biochemical; conditions: Lineweaver-Burk; for Ki: mean ± standard error, read-out: K I hCA I
Description: as §1, §2

hCA II = hCA II (Homo sapiens, UniProt P00918); type: biochemical; conditions: Lineweaver-Burk; for Ki: mean ± standard error, read-out: K I hCA II
Description: as §1, §2

BChE = BChE (Homo sapiens, UniProt P06276); conditions: mean ± standard error; Lineweaver-Burk; read-out: K I BChE
Description: as §1, §2

hCA I, sequence (P00915 whole entry): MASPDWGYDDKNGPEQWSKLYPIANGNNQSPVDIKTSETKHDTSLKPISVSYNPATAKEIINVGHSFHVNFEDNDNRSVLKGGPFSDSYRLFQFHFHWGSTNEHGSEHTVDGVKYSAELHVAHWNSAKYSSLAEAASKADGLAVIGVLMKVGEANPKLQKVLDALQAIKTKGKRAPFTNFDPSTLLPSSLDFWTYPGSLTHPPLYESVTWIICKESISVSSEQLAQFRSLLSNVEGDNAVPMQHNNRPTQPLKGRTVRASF
AChE, sequence (P22303 32-614): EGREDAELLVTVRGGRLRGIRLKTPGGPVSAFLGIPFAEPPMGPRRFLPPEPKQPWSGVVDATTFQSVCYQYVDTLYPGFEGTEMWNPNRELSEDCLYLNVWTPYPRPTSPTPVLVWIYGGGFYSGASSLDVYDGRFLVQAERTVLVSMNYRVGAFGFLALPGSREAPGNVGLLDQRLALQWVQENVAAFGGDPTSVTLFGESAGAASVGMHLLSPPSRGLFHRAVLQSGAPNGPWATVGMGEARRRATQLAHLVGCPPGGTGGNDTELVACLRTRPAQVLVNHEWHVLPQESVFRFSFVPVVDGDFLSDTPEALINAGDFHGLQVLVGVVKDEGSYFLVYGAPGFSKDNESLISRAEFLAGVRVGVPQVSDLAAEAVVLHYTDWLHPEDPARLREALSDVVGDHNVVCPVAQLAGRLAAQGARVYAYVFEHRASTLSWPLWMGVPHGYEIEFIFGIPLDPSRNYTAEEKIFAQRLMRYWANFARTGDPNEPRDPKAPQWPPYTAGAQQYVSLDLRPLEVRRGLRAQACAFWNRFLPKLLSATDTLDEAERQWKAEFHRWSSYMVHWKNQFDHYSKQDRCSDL
BChE, sequence (P06276 29-602, species assumed): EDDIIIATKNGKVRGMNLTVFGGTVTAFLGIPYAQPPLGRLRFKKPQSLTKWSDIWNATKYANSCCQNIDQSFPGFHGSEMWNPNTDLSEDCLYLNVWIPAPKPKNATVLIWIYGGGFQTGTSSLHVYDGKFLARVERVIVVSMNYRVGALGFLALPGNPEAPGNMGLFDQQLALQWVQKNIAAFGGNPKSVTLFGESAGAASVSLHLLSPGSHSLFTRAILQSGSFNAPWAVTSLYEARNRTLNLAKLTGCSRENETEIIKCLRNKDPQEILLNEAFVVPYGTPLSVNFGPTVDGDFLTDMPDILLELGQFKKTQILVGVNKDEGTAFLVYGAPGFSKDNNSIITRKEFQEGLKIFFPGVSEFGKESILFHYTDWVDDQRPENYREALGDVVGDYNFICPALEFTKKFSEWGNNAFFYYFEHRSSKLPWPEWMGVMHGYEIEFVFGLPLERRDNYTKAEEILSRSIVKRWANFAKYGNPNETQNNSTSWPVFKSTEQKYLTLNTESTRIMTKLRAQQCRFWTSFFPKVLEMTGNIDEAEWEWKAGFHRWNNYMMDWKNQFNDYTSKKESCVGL

Row | SMILES | Ki (AChE) [nM] | inhibition type hCA I (hCA I) | Ki (hCA I) [nM] | inhibition type hCA II (hCA II) | Ki (hCA II) [nM] | Ki (BChE) [nM] | inhibition type AChE (AChE)
1 | COc1ccc(C(=O)N2N=C(C)C(N=Nc3ccc(S(N)(=O)=O)cc3)C2=O)cc1 (stereo not drawn) [1e, 4‐([1‐(4‐Methoxybenzoyl)‐3‐Methyl‐5‐Oxo‐4,5‐Dihydro‐1H‐Pyrazol‐4‐Yl]Diazenyl) Benzenesulfonamide] | 14 ± 1.49 | non‐competitive | 75.5 ± 4.91 | competitive | 63.7 ± 6.71 | 80.9 ± 9.41 | 
2 | CC1=NN(C(=O)c2cccc(Cl)c2)C(=O)C1/N=N/c1cccc(S(N)(=O)=O)c1 (stereo not drawn) [2f, 3‐([1‐(3‐Chlorobenzoyl)‐3‐Methyl‐5‐Oxo‐4,5‐Dihydro‐1H‐Pyrazol‐4‐Yl]Diazenyl) Benzenesulfonamide] | 9.52 ± 0.86 |  | 37.7 ± 2.06 |  | 33.3 ± 4.09 | 136 ± 17.4 | 
3 | CC1=NN(C(=O)c2ccc(Cl)cc2)C(=O)C1/N=N/c1cccc(S(N)(=O)=O)c1 (stereo not drawn) [2b, 3‐([1‐(4‐Chlorobenzoyl)‐3‐Methyl‐5‐Oxo‐4,5‐Dihydro‐1H‐Pyrazol‐4‐Yl]Diazenyl) Benzenesulfonamide] | 8.66 ± 0.93 |  | 37.1 ± 2.43 | non‐competitive | 24.8 ± 1.57 | 76.4 ± 11.6 | 
4 | COc1ccc(C(=O)N2N=C(C)C(/N=N/c3cccc(S(N)(=O)=O)c3)C2=O)cc1 (stereo not drawn) [2e, 3‐([1‐(4‐Methoxybenzoyl)‐3‐Methyl‐5‐Oxo‐4,5‐Dihydro‐1H‐Pyrazol‐4‐Yl]Diazenyl) Benzenesulfonamide] | 13.5 ± 0.91 |  | 49 ± 6.25 |  | 35.4 ± 1.94 | 93.8 ± 10.5 | 
5 | CC1=NN(C(=O)c2ccc(Br)cc2)C(=O)C1N=Nc1ccc(S(N)(=O)=O)cc1 (stereo not drawn) [1c, 4‐([1‐(4‐Bromobenzoyl)‐3‐Methyl‐5‐Oxo‐4,5‐Dihydro‐1H‐Pyrazol‐4‐Yl]Diazenyl) Benzenesulfonamide] | 9.47 ± 1.23 |  | 49.2 ± 4.27 | non‐competitive | 85.4 ± 6.6 | 34.8 ± 5.88 | 
6 | CC1=NN(C(=O)c2ccccc2)C(=O)C1/N=N/c1cccc(S(N)(=O)=O)c1 (stereo not drawn) [2a, 3‐[(1‐Benzoyl‐3‐Methyl‐5‐Oxo‐4,5‐Dihydro‐1H‐Pyrazol‐4‐Yl)diazinyl] Benzenesulfonamide] | 10.5 ± 0.9 |  | 73.2 ± 7.17 |  | 55.7 ± 4.14 | 98.3 ± 7.34 | 
7 | CC1=NN(C(=O)c2ccc(C)cc2)C(=O)C1N=Nc1cccc(S(N)(=O)=O)c1 (stereo not drawn) [2d, 3‐([3‐Methyl‐1‐(4‐Methylbenzoyl)‐5‐Oxo‐4,5‐Dihydro‐1H‐Pyrazol‐4‐Yl]Diazenyl) Benzenesulfonamide] | 15.8 ± 1.04 | competitive | 18 ± 2.86 |  | 36.2 ± 2.78 | 88.6 ± 12.9 | 
8 | CC1=NN(C(=O)c2ccc(Br)cc2)C(=O)C1/N=N/c1cccc(S(N)(=O)=O)c1 (stereo not drawn) [2c, 3‐([1‐(4‐Bromobenzoyl)‐3‐Methyl‐5‐Oxo‐4,5‐Dihydro‐1H‐Pyrazol‐4‐Yl]Diazenyl) Benzenesulfonamide] | 8.43 ± 1.42 |  | 44.6 ± 2.84 |  | 28.8 ± 2.51 | 96 ± 5.44 | 
9 | CC1=NN(C(=O)c2ccc(C)cc2)C(=O)C1/N=N/c1ccc(S(N)(=O)=O)cc1 (stereo not drawn) [1d, 4‐([3‐Methyl‐1‐(4‐Methylbenzoyl)‐5‐Oxo‐4,5‐Dihydro‐1H‐Pyrazol‐4‐Yl]Diazenyl) Benzenesulfonamide] | 16 ± 1.6 |  | 65.1 ± 3 |  | 42.6 ± 2.92 | 64.6 ± 7.59 | 
10 | CC1=NN(C(=O)c2ccccc2)C(=O)C1/N=N/c1ccc(S(N)(=O)=O)cc1 (stereo not drawn) [1a, 4‐[(1‐Benzoyl‐3‐Methyl‐5‐Oxo‐4,5‐Dihydro‐1H‐Pyrazol‐4‐Yl)diazinyl] Benzenesulfonamide] | 11.2 ± 1.15 |  | 53.9 ± 5.03 |  | 65.5 ± 5.42 | 95.5 ± 5.78 | 
11 | CC1=NN(C(=O)c2ccc(Cl)cc2)C(=O)C1/N=N/c1ccc(S(N)(=O)=O)cc1 (stereo not drawn) [1b, 4‐([1‐(4‐Chlorobenzoyl)‐3‐Methyl‐5‐Oxo‐4,5‐Dihydro‐1H‐Pyrazol‐4‐Yl]Diazenyl) Benzenesulfonamide] | 13.3 ± 1.43 |  | 55.9 ± 3.29 |  | 50.8 ± 3.36 | 73.3 ± 12.2 | 
12 | CC1=NN(C(=O)c2cccc(Cl)c2)C(=O)C1/N=N/c1ccc(S(N)(=O)=O)cc1 (stereo not drawn) [1f, 4‐([1‐(3‐Chlorobenzoyl)‐3‐Methyl‐5‐Oxo‐4,5‐Dihydro‐1H‐Pyrazol‐4‐Yl]Diazenyl) Benzenesulfonamide] | 7.45 ± 0.98 |  | 66.8 ± 5.15 |  | 62.2 ± 4.19 | 58.2 ± 8.11 | competitive
